The values that follow come from paper PMC6872167, “An odorant receptor from Anopheles gambiae that demonstrates enantioselectivity to the plant volatile, linalool” (PLoS ONE, 2019).

A word on the EC50: it is the concentration at which the effect is half-maximal. A higher EC50 goes with a less potent agent.

Assay [1] deals with T1, Odorant receptor 29 (AgamOr29) (Anopheles gambiae, UniProt A0A1S4H074).
T1 construct: coding region, expressed with AgamOrco in Xenopus laevis oocytes; with AgamOrco
T1 sequence (A0A1S4H074 1-384): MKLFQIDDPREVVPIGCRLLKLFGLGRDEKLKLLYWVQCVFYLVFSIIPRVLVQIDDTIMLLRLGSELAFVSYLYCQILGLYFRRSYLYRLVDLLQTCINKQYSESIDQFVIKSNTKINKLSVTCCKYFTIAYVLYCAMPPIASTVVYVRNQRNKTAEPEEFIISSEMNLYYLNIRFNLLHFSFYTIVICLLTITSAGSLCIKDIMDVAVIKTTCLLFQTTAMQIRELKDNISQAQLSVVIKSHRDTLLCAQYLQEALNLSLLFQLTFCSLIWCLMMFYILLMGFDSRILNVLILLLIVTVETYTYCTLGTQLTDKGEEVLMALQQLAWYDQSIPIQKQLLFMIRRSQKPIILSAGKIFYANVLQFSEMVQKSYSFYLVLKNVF
T1 sequence (Q7QCC7 1-478 partner): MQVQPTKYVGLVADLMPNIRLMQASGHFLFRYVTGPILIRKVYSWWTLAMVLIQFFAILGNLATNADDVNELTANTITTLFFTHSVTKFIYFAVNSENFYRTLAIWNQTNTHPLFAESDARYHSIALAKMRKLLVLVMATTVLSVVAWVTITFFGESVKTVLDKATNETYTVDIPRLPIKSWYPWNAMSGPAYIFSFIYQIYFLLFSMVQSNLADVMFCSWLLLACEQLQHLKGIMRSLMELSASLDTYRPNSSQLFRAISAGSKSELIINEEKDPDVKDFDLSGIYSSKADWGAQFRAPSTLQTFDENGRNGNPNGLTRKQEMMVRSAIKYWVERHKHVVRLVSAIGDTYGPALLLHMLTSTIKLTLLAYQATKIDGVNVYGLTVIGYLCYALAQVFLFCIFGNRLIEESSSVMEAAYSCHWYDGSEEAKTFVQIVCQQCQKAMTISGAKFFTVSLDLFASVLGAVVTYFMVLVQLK
The assay can be described thus: two-electrode voltage clamp of Xenopus oocytes, concentration-response. The format is cell-based. The text has this:
two-electrode voltage clamp of Xenopus oocytes, concentration-response on Odorant receptor 29 (AgamOr29) | to (R)-(–)-linalool (left)and (+/–) linalool (right).

Assay [2] has as its target T1, Odorant receptor 29 (AgamOr29). The experiment in a line: two-electrode voltage clamp of Xenopus oocytes, single concentration […]. It is filed as cell-based. (In two-electrode clamp one electrode senses voltage and the other passes current.)

Molecules are shown by their SMILES.

In assay [1], `C=CC(C)(O)CCC=C(C)C` (racemic) [(+/–) linalool] registered an EC50 of roughly 5.7 µM. Regarding `C=C[C@](C)(O)CCC=C(C)C` [(R)-(–)-linalool], the EC50 in assay [1] is roughly 8 µM. In the case of `CCC(C)(O)CCCC(C)C` (stereo not drawn) [tetrahydro linalool], the “two-electrode voltage clamp of Xenopus oocytes, single concentration 10^-4 M” value in assay [2] was “tetrahydro linalool elicited a moderate, but repeatable response from AgamOr29, likely due to its structural similarity to linalool”.
